Test system: peripheral blood mononuclear cells (PBMC)
Experiment: Cytokine and immune-function gene expression of PBMC in vitro (qRT-PCR, 41 immune-related genes)
Type: cell-based, human
Procedure: After a screening visit at which blood was drawn to test for IgG antibody against HSV-1 and subjects were interviewed for inclusion/exclusion criteria, selected subjects returned for blood draws on day 1. After the blood draw on day 1, subjects in group A only were dosed with SADBE. A petrolatum donut was applied with a cotton swab to form about a 1 cm diameter donut on skin on the inner aspect of the upper arm. Then a separate cotton swab was dipped in a 2% SADBE solution (w/v) in DMSO, and the swab was then used to apply about 10-20 mg of solution over about a 1 cm diameter circle within the petrolatum donut. Immediately after application, the application site was covered with TEGADERM. Subjects were advised to remove the TEGADERM and rinse and wipe the spot three hours later. The group A subjects then returned for blood draws on days 15 and 57 and were queried about adverse events on those dates.
PBMC were isolated using SepMate PBMC isolation tubes (Stem Cell Technologies, Vancouver, Canada) and Ficoll-Paque according to the manufacturer's instructions. PBMC were isolated and suspended in negative control medium at 2 million cells/ml. PBMC suspension (100 μL) was added to 100 μL of medium in quadruplicate in 96-well plates. The plates were prepared in advance and stored at −70° C. The wells were in five different conditions in quadruplicate with these final concentrations after addition of the 100 μL of PBMC suspension in negative control medium. • 1. Negative control in medium (RPMI with glutamine and pen/strep, supplemented with 10% human A/B serum). • 2. Medium plus 16 μg/ml protein from heat-inactivated HSV-1-infected Vero cell extracts. • 3. Medium plus heat-inactivated HSV-1 cell-free virus at a final 7.5 million pfu/ml. • 4. Medium plus Candida cell extract. (Greer item number M15A50, 20,000 pnu/ml allergenic extract mixed molds Candida albicans, was diluted 1/50 into medium). • 5. Positive control, medium plus 10 μg/ml concanavalin A.
Two plates were created for each subject at each collection point. One plate was incubated for 2 days at 37° C. in a humidified 5% CO2 atmosphere and then RNA was isolated from the pooled contents of the 4 wells of a given condition for a specific patient, and the RNA was stored at −70° C. and subsequently used for quantitative real time PCR analysis of gene expression of 41 immune-related genes.
As noted above, after 2 days of growth of the PBMC in a 37° C. humidified 5% CO2 incubator in a 96-well plate, four wells of a single condition (negative control, positive control, heat-inactivated HSV-1, HSV-1-infected cell extracts, or Candida extract) with cells from a single subject (200 μL in each well) were pooled, and the RNA was immediately isolated with Trizol reagent and chloroform by Qiagen RNeasy MiniElute clean up kit Qiagen cat #74204, according to manufacturer's instructions into a final volume of 13 μL, and then flash frozen on powdered dry ice, and stored at −70° C. in aliquots of 3 μL for RNA quantification and 10 μL for PCR analysis.
RNA was preamplified with the Qiagen RT2 PreAMP cDNA synthesis kit (Ref. 330451) and custom RT2 PreAmp primer mix (Ref. 330141) starting with about 50 ng RNA according to the procedure of RT preamp cDNA synthesis handbook date March 2011, pages 17-20. The amplification reactions (final 120 μL) were frozen at −70° C. and used for qPCR analysis the next day.
qPCR was done with the Qiagen RT PCR profiler gene analysis kit (catalog number 330451) using RT2 Sybr Green Rox qPCR Mastermix (24) (Part 330523) and Custom RT2 PCR array plates (Ref. 330171). For this 675 μL 2×RT2 SYBR green mastermix, 51 μL pre-AMP synthesis reaction, and 623 μL RNase free water were mixed, and then 25 μL of the mixture was added to 48 wells on the left or right half of the custom PCR plate. The PCR instrument was Applied Biosystems 7900HT fast real time PCR. […]

[1] = Group A, HSV-infected cell extracts

CCCCOc1c(OCCCC)c(=O)c1=O [SADBE, 3,4-Dibutoxy-3-cyclobutene-1,2-dione]
Ratio of absolute IFNG gene expression in group A vs. Groups B + C pooled (Candida, group A day 57 after SADBE): 2.684 | CCL2 ratio of PBMC absolute gene expression day 15/day 1 (Group A, Candida): 0.73 | CCL2 ratio of PBMC absolute gene expression day 57/day 1 (Group A, Candida): 1.16 | CCL3 ratio of PBMC absolute gene expression day 15/day 1 (Group A, Candida): 0.33 | CCL3 ratio of PBMC absolute gene expression day 57/day 1 (Group A, Candida): 1.79 | CCL7 ratio of PBMC absolute gene expression day 15/day 1 (Group A, Candida): 0.66 | CCL7 ratio of PBMC absolute gene expression day 57/day 1 (Group A, Candida): 2.03 | CCR5 ratio of PBMC absolute gene expression day 15/day 1 (Group A, Candida): 1.16 | CCR5 ratio of PBMC absolute gene expression day 57/day 1 (Group A, Candida): 1.42 | CD80 ratio of PBMC absolute gene expression day 15/day 1 (Group A, Candida): 0.75 | CD80 ratio of PBMC absolute gene expression day 57/day 1 (Group A, Candida): 1.57 | CXCL2 ratio of PBMC absolute gene expression day 15/day 1 (Group A, Candida): 0.39 | CXCL2 ratio of PBMC absolute gene expression day 57/day 1 (Group A, Candida): 1.10 | CXCL5 ratio of PBMC absolute gene expression day 15/day 1 (Group A, Candida): 0.46 | CXCL5 ratio of PBMC absolute gene expression day 57/day 1 (Group A, Candida): 1.45 | CXCL9 ratio of PBMC absolute gene expression day 15/day 1 (Group A, Candida): 2.52 | CXCL9 ratio of PBMC absolute gene expression day 57/day 1 (Group A, Candida): 14.21 | CXCL10 ratio of PBMC absolute gene expression day 15/day 1 (Group A, Candida): 2.87 | CXCL10 ratio of PBMC absolute gene expression day 57/day 1 (Group A, Candida): 12.8 | CXCL11 ratio of PBMC absolute gene expression day 15/day 1 (Group A, Candida): 1.06 | CXCL11 ratio of PBMC absolute gene expression day 57/day 1 (Group A, Candida): 2.53 | DDX58 ratio of PBMC absolute gene expression day 15/day 1 (Group A, Candida): 1.08 | DDX58 ratio of PBMC absolute gene expression day 57/day 1 (Group A, Candida): 1.29 | FOXP3 ratio of PBMC absolute gene expression day 15/day 1 (Group A, Candida): 1.16 | FOXP3 ratio of PBMC absolute gene expression day 57/day 1 (Group A, Candida): 2.01 | GATA3 ratio of PBMC absolute gene expression day 15/day 1 (Group A, Candida): 1.12 | GATA3 ratio of PBMC absolute gene expression day 57/day 1 (Group A, Candida): 0.28 | ICAM1 ratio of PBMC absolute gene expression day 15/day 1 (Group A, Candida): 1.03 | ICAM1 ratio of PBMC absolute gene expression day 57/day 1 (Group A, Candida): 1.27 | IFNA1 ratio of PBMC absolute gene expression day 15/day 1 (Group A, Candida): 1.42 | IFNA1 ratio of PBMC absolute gene expression day 57/day 1 (Group A, Candida): 2.13 | IFNB1 ratio of PBMC absolute gene expression day 15/day 1 (Group A, Candida): 1.03 | IFNB1 ratio of PBMC absolute gene expression day 57/day 1 (Group A, Candida): 0.93 | IFNG ratio of PBMC absolute gene expression day 15/day 1 (Group A, Candida): 0.81 | IFNG ratio of PBMC absolute gene expression day 57/day 1 (Group A, Candida): 8.54 | IL1B ratio of PBMC absolute gene expression day 15/day 1 (Group A, Candida): 0.17 | IL1B ratio of PBMC absolute gene expression day 57/day 1 (Group A, Candida): 1.73 | IL1R1 ratio of PBMC absolute gene expression day 15/day 1 (Group A, Candida): 0.69 | IL1R1 ratio of PBMC absolute gene expression day 57/day 1 (Group A, Candida): 0.9 | IL1RN ratio of PBMC absolute gene expression day 15/day 1 (Group A, Candida): 1 | IL1RN ratio of PBMC absolute gene expression day 57/day 1 (Group A, Candida): 1.91 | IL2 ratio of PBMC absolute gene expression day 15/day 1 (Group A, Candida): 0.75 | IL2 ratio of PBMC absolute gene expression day 57/day 1 (Group A, Candida): 6.31 | IL4 ratio of PBMC absolute gene expression day 15/day 1 (Group A, Candida): 1.12 | IL4 ratio of PBMC absolute gene expression day 57/day 1 (Group A, Candida): 1.52 | IL5 ratio of PBMC absolute gene expression day 15/day 1 (Group A, Candida): 1.23 | IL5 ratio of PBMC absolute gene expression day 57/day 1 (Group A, Candida): 1.10 | IL8 ratio of PBMC absolute gene expression day 15/day 1 (Group A, Candida): 0.44 | IL8 ratio of PBMC absolute gene expression day 57/day 1 (Group A, Candida): 1.89 | IL10 ratio of PBMC absolute gene expression day 15/day 1 (Group A, Candida): 0.6 | IL10 ratio of PBMC absolute gene expression day 57/day 1 (Group A, Candida): 1.12 | IL12A ratio of PBMC absolute gene expression day 15/day 1 (Group A, Candida): 1.02 | IL12A ratio of PBMC absolute gene expression day 57/day 1 (Group A, Candida): 1.64 | IL12B ratio of PBMC absolute gene expression day 15/day 1 (Group A, Candida): 0.78 | IL12B ratio of PBMC absolute gene expression day 57/day 1 (Group A, Candida): 3.61 | IL13 ratio of PBMC absolute gene expression day 15/day 1 (Group A, Candida): 0.6 | IL13 ratio of PBMC absolute gene expression day 57/day 1 (Group A, Candida): 4.28 | IL15 ratio of PBMC absolute gene expression day 15/day 1 (Group A, Candida): 1.09 | IL15 ratio of PBMC absolute gene expression day 57/day 1 (Group A, Candida): 2.18 | IL16 ratio of PBMC absolute gene expression day 15/day 1 (Group A, Candida): 1.02 | IL16 ratio of PBMC absolute gene expression day 57/day 1 (Group A, Candida): 0.81 | JAK2 ratio of PBMC absolute gene expression day 15/day 1 (Group A, Candida): 1.1 | JAK2 ratio of PBMC absolute gene expression day 57/day 1 (Group A, Candida): 1.68 | LTA ratio of PBMC absolute gene expression day 15/day 1 (Group A, Candida): 1.15 | LTA ratio of PBMC absolute gene expression day 57/day 1 (Group A, Candida): 1.94 | LYZ ratio of PBMC absolute gene expression day 15/day 1 (Group A, Candida): 2.22 | LYZ ratio of PBMC absolute gene expression day 57/day 1 (Group A, Candida): 0.93 | MX1 ratio of PBMC absolute gene expression day 15/day 1 (Group A, Candida): 1.28 | MX1 ratio of PBMC absolute gene expression day 57/day 1 (Group A, Candida): 1.34 | NOD1 ratio of PBMC absolute gene expression day 15/day 1 (Group A, Candida): 1.19 | NOD1 ratio of PBMC absolute gene expression day 57/day 1 (Group A, Candida): 1.18 | SPP1 ratio of PBMC absolute gene expression day 15/day 1 (Group A, Candida): 2.32 | SPP1 ratio of PBMC absolute gene expression day 57/day 1 (Group A, Candida): 7.34 | STAT1 ratio of PBMC absolute gene expression day 15/day 1 (Group A, Candida): 1.12 | STAT1 ratio of PBMC absolute gene expression day 57/day 1 (Group A, Candida): 3.36 | STAT4 ratio of PBMC absolute gene expression day 15/day 1 (Group A, Candida): 1.07 | STAT4 ratio of PBMC absolute gene expression day 57/day 1 (Group A, Candida): 1.76 | TNF ratio of PBMC absolute gene expression day 15/day 1 (Group A, Candida): 0.85 | TNF ratio of PBMC absolute gene expression day 57/day 1 (Group A, Candida): 1.22 | TNFSF10 ratio of PBMC absolute gene expression day 15/day 1 (Group A, Candida): 1.02 | TNFSF10 ratio of PBMC absolute gene expression day 57/day 1 (Group A, Candida): 1.52 | TNFSF13B ratio of PBMC absolute gene expression day 15/day 1 (Group A, Candida): 1.14 | TNFSF13B ratio of PBMC absolute gene expression day 57/day 1 (Group A, Candida): 1.62 | CCL2 ratio of PBMC absolute gene expression day 15/day 1 [1]: 0.88 | CCL2 ratio of PBMC absolute gene expression day 57/day 1 [1]: 1.21 | CCL3 ratio of PBMC absolute gene expression day 15/day 1 [1]: 1.31 | CCL3 ratio of PBMC absolute gene expression day 57/day 1 [1]: 4.60 | CCL7 ratio of PBMC absolute gene expression day 15/day 1 [1]: 0.92 | CCL7 ratio of PBMC absolute gene expression day 57/day 1 [1]: 0.75 | CCR5 ratio of PBMC absolute gene expression day 15/day 1 [1]: 1.00 | CCR5 ratio of PBMC absolute gene expression day 57/day 1 [1]: 0.93 | CD80 ratio of PBMC absolute gene expression day 15/day 1 [1]: 0.90 | CD80 ratio of PBMC absolute gene expression day 57/day 1 [1]: 0.93 | CXCL2 ratio of PBMC absolute gene expression day 15/day 1 [1]: 1.02 | CXCL2 ratio of PBMC absolute gene expression day 57/day 1 [1]: 2.79 | CXCL5 ratio of PBMC absolute gene expression day 15/day 1 [1]: 1.24 | CXCL5 ratio of PBMC absolute gene expression day 57/day 1 [1]: 6.03 | CXCL9 ratio of PBMC absolute gene expression day 15/day 1 [1]: 1.12 | CXCL9 ratio of PBMC absolute gene expression day 57/day 1 [1]: 0.91 | CXCL10 ratio of PBMC absolute gene expression day 15/day 1 [1]: 0.82 | CXCL10 ratio of PBMC absolute gene expression day 57/day 1 [1]: 0.49 | CXCL11 ratio of PBMC absolute gene expression day 15/day 1 [1]: 0.53 | CXCL11 ratio of PBMC absolute gene expression day 57/day 1 [1]: 0.31 | DDX58 ratio of PBMC absolute gene expression day 15/day 1 [1]: 0.72 | DDX58 ratio of PBMC absolute gene expression day 57/day 1 [1]: 0.94 | FOXP3 ratio of PBMC absolute gene expression day 15/day 1 [1]: 1.15 | FOXP3 ratio of PBMC absolute gene expression day 57/day 1 [1]: 1.11 | GATA3 ratio of PBMC absolute gene expression day 15/day 1 [1]: 2.84 | GATA3 ratio of PBMC absolute gene expression day 57/day 1 [1]: 2.6 | ICAM1 ratio of PBMC absolute gene expression day 15/day 1 [1]: 1.05 | ICAM1 ratio of PBMC absolute gene expression day 57/day 1 [1]: 0.77 | IFNA1 ratio of PBMC absolute gene expression day 15/day 1 [1]: 0.80 | IFNA1 ratio of PBMC absolute gene expression day 57/day 1 [1]: 1.29 | IFNB1 ratio of PBMC absolute gene expression day 15/day 1 [1]: 0.65
